Experimental data published in a compilation of properties of binary mixtures (doi:10.1021/jp5065243).

Test: xn = mol fraction of the nth substance listed
Settings: 101 kPa

CCCC[N+](C)(C)C.O=S(=O)([N-]S(=O)(=O)C(F)(F)F)C(F)(F)F + CC(O)C(C)O
x2 = 0
Settings	viscosity [mPa·s]
323.15 K	35.6
333.15 K	25.7
338.15 K	22.1
343.15 K	19.2

CCCC[N+](C)(C)C.O=S(=O)([N-]S(=O)(=O)C(F)(F)F)C(F)(F)F + CC(O)CO
viscosity [mPa·s]
Settings	x2 = 0	x2 = 0.132	x2 = 0.1909	x2 = 0.3054	x2 = 0.5274	x2 = 0.7262	x2 = 0.8149	x2 = 0.8843
323.15 K	–	25.2	22.8	19.6	15.85	14.66	12.95	–
328.15 K	30	21.4	–	16.72	13.36	12.33	10.63	9.67
333.15 K	25.7	18.4	16.53	–	11.41	10.46	8.85	8.04
338.15 K	–	15.98	14.01	–	–	8.91	–	6.68
343.15 K	–	13.99	12.36	10.89	8.6	7.59	6.35	5.62
348.15 K	–	12.65	–	9.89	–	6.68	–	4.96
353.15 K	15.63	11.91	10.8	9.3	7.51	6.1	–	4.62

C[N+](C)(C)CCO.O=S(=O)([N-]S(=O)(=O)C(F)(F)F)C(F)(F)F + CC(O)CO
viscosity [mPa·s]
Settings	313.15 K	318.15 K	323.15 K	328.15 K	333.15 K	338.15 K	343.15 K	348.15 K	353.15 K
x2 = 0	–	46.8	39.3	33.4	–	–	21.6	–	16.9
x2 = 0.2189	37.3	31.1	26.2	22.3	19.2	16.54	–	12.98	11.55
x2 = 0.3834	31.1	26.2	21.7	18.6	15.87	13.73	–	10.65	9.42
x2 = 0.4786	–	–	19.8	16.76	14.37	12.63	10.88	9.6	8.48
x2 = 0.5867	26.7	21.9	18.2	–	13.15	11.34	9.88	8.68	7.67
x2 = 0.7668	22	17.9	14.79	12.4	10.52	9.01	7.78	6.77	5.91
x2 = 0.8744	19.7	15.95	13.08	10.84	9.12	7.72	–	5.69	4.91

CCCC[N+](C)(C)C.O=S(=O)([N-]S(=O)(=O)C(F)(F)F)C(F)(F)F + CCC(O)CO
viscosity [mPa·s]
Settings	323.15 K	328.15 K	333.15 K	338.15 K	343.15 K	348.15 K	353.15 K
x2 = 0	35.6	–	25.7	22.1	19.2	16.81	15.63
x2 = 0.2291	22.5	19.1	16.35	–	–	10.93	10.09
x2 = 0.3543	19.1	16.13	13.78	–	10.4	9.13	8.39
x2 = 0.5116	16.9	14.18	12.01	10.29	8.9	7.77	–
x2 = 0.6289	–	13.27	11.03	9.35	8.1	–	6.33
x2 = 0.8622	13.55	10.93	8.96	7.44	6.26	5.32	–
x2 = 0.9031	13.23	10.7	8.68	7.12	5.98	5.19	4.58
